Results as given in paper PMC10764104, “Discovery of Molecular Glue Degraders via Isogenic Morphological Profiling” (ACS Chemical Biology, 2023).

How the values were obtained:
GSPT2 G566N = target: T1, GSPT2 G566N (Homo sapiens, UniProt Q8IYD1, G566N); test: Western blot (HA-tag) of G-loop mutant GSPT2 in RKO cells; type: cell-based; settings: RKO cells stably overexpressing HA-GSPT2 G566N, 16 h; 10 μM FL2-14 or 10 nM CC-885
T1 construct: expressed in transfected cells; host or cells: RKO cells, lentiviral transduction, puromycin-selected
Experimental: Figure 3 FL2-14 is a selective GSPT2 molecular glue degrader. (A) Structure of FL2-14 comprising fluorosulfate scaffold FL2 (black) and tail group modification 14 (blue). (B) DMSO-normalized quantitative proteomics after 16 h of treatment with FL2-14 (10 μM) in RKO WT (n = 2). […] (C) Structural alignment of AlphaFold models of GSPT1 (AF-P15170-F1-model_v4 in gray) and GSPT2 (AF-Q8IYD1-F1-model_v4 in blue). (D) Validation of GSPT2 degradation by FL2-14. […] (E) Dose–response of FL2-14 in RKO and HEK293T cells. Cells were treated with the FL2-14 (0 to 10 μM) for 16 h. (F) Degradation of GSPT2^WT or GSPT2^G566N.
Prediction of the G‐loop degron sequence in GSPT2
We first compiled all CRBN degron sequences with known crystal structures (Table S 2). We subsequently discarded 6UML as its degron sequence included an alanine instead of the typical glycine observed in the seventh amino acid residue of other degron sequences, leaving six degron sequences. We then scanned the latest AlphaFold structure of GSPT215 for a potential stretch of 10 amino acids that would align best with each degron sequence. We yielded the same stretch of amino acid residues from position 560 to 569 ([…]) and RMSD values under 0.5 Å.
Table S 2: List of crystal structures used for the computational prediction of the G‐loop degron sequence […]
PDB code Resolution (Å) Chain Segment Sequence Reference
Analysis of G‐loop mutation […]

recombinant DDB1-CRBN = target: T2, recombinant DDB1-CRBN (Homo sapiens, UniProt Q96SW2); test: Fluorescence polarization-based competition assay for CRBN binding; settings: 200 nM CRBN-DDB1, 20 nM pomalidomide-fluorescein tracer 16, triplicates; read-out: FP_CRBN_binding: CRBN binding affinity, EC50
T2 construct: His; made in house; host or cells: High Five insect cells (baculovirus made and propagated in SF9 cells)
Experimental: Prior to screening the compound library in the isogenic CPA, we assessed their CRBN binding affinities using a fluorescence-polarization-based competition assay with recombinant DDB1-CRBN and the fluorescent tracer 16 (Figure S2). […] We also assessed the cytotoxicity of the CRBN binders in RKO wild-type (WT) cells to determine the appropriate treatment concentration. […]
(§1) Fluorescence Polarization‐based competition assay
(§2) Fluorescence Polarization assays were performed in 384‐well, Low Volume, Black, Round Bottom, Polystyrene Nonbinding surface Microplates (Corning, #4514). The test compounds were incubated with 200 nM CRBN‐DDB1 and 20 nM Pomalidomide‐fluorescein tracer 16 in 50 mM Tris‐HCl pH 7.5, 200 mM NaCl, 1 mM DTT, 0.02% Triton X‐ 100, and 0.1 µg/µL Bovine Serum Albumin (Sigma Aldrich, #A7030) in a total volume of 25 µL. Fluorescence polarization values were determined with a PerkinElmer Envision reader with FITC FP dual mirror and FITC FP 480 excitation filter and FITC FP 535 emission filters. Fluorescence polarization values of a 10x serial dilution (10 nM to 100 µM) of the test compounds were determined in triplicates. EC50 values were calculated with GraphPad Prism software (version 10.0.2) with a non‐linear fit function (4PL sigmoidal curve fit) adjusting the bottom constrain to the FP value of free tracer. […]

HEK293T cells = test: CellTiter-Glo cytotoxicity of selected compounds (manual, 72 h); type: cell-based, human; settings: up to 10 μM
Experimental: (§3) Assessment of gene expression and essentiality in RKO WT
as §1
(§4) EC50 values were calculated with GraphPad Prism […]
(§5) the FP value of free tracer. […]
(§6) instructions. […] For the screening of the whole SuFEx
(§7) Data visualization was done with seaborn
(§8) (https://seaborn.pydata.org, version 0.12.2). […]
(§9) compounds. (F) Analysis of the cytotoxicity of compounds with treatment‐centric features related to FL2‐ […]
(§10) Synthesis and in Vitro Evaluation of Diverse Heterocyclic Diphenolic Compounds as Inhibitors of DYRK1A.
(§11) (7) Zhang, J.‐H.; Chung, T. D. Y.; Oldenburg, K. R. A Simple Statistical Parameter for Use in Evaluation and Validation of High Throughput Screening Assays. SLAS Discov.

RKO WT cells [1] = test: as above; type: cell-based, human; settings: up to 10 μM
Experimental: as §3, §1, §4, §5, §6, §7, §8, §9, §10, §11

[2] = system: RKO WT, RKO CRBN KO and RKO CRBN OE; test: Isogenic cell painting assay, treatment-centric feature selection and CRBN-dependency prediction; type: cell-based, human
RKO WT cells [3] = settings: method not stated for this control
Description: Prior to screening the compound library in the isogenic CPA, we assessed their CRBN binding affinities using a fluorescence-polarization-based competition assay with recombinant DDB1-CRBN and the fluorescent tracer 16 (Figure S2). […] We also assessed the cytotoxicity of the CRBN binders in RKO wild-type (WT) cells to determine the appropriate treatment concentration.
as §3
Public datasets on the transcriptome and essentiality of a protein‐encoding gene for RKO (cell line ID: ACH‐000943) were retrieved from DepMap Public 23Q2 (https://depmap.org/portal/, accessed on 14 August 2023). […]
as §1
as §2, with “The test compounds were incubated with 200 nM CRBN‐DDB1 and 20 nM Pomalidomide‐fluorescein tracer 16 in 50 mM Tris‐HCl pH 7.5, 200 mM NaCl, 1 mM DTT, 0.02% Triton X‐ 100, and 0.1 µg/µL Bovine Serum Albumin (Sigma Aldrich, #A7030) in a total volume of 25 µL.” left out

Row | SMILES | EC50 (recombinant DDB1-CRBN) | EC50 (HEK293T cells) | EC50 (RKO WT cells [1]) | also measured
1 | Cc1ccc(NC(=O)NCc2ccc3c(c2)CN(C2CCC(=O)NC2=O)C3=O)cc1Cl (stereo not shown) [CC-885, reference compound] | – | – | – | degradation of HA-tagged GSPT2 G566N (glycine of G-loop replaced by asparagine) (GSPT2 G566N): rescued degradation of GSPT2
2 | O=C1CCC(N2C(=O)c3ccc(Nc4cccc(OS(=O)(=O)N5CC(CCO)C5)c4)cc3C2=O)C(=O)N1 (stereo not shown) [FL1-2] | 0.419 µM | > 10 µM | > 10 µM | –
3 | O=C1CCC(N2C(=O)c3ccc(Nc4cccc(OS(=O)(=O)N5CCC(c6ccco6)C5)c4)cc3C2=O)C(=O)N1 (stereo not shown) [FL1-12] | 2.78 µM | > 10 µM | > 10 µM | –
4 | CN(C)c1ncc(CN(C)S(=O)(=O)Oc2cccc(Nc3ccc4c(c3)C(=O)N(C3CCC(=O)NC3=O)C4=O)c2)cn1 (stereo not shown) [FL1-18] | 0.363 µM | > 10 µM | > 10 µM | –
5 | CN1C(=O)CCC(N2C(=O)c3cccc(N)c3C2=O)C1=O (stereo not shown) [Methylated pomalidomide] | – | – | – | Number_Features: number of treatment-centric features selected [2]: 0
6 | Nc1cccc2c1C(=O)N(C1CCC(=O)NC1=O)C2=O (stereo not shown) [Pomalidomide, reference compound] | – | – | – | cytotoxicity to RKO WT (RKO WT cells [3]): not cytotoxic
7 | COc1cc(N2CCN(CCOCCOCCNC(=O)CNc3cccc4c3C(=O)N(C3CCC(=O)NC3=O)C4=O)CC2)ccc1Nc1ncc(Cl)c(Nc2ccccc2S(=O)(=O)C(C)C)n1 (stereo not shown) [TL 13-12] | – | – | – | change of cell size across isogenic RKO cells ([2]; 1.5 μM, RKO CRBN OE vs RKO CRBN KO): enlarges cells drastically in a CRBN-dependent manner
